Data on 1 molecule can be found in patent publication US20240156889A1, “A METHOD FOR REDUCING ANIMAL WEIGHT” (BEIJING WEHAND-BIO PHARMACEUTICAL CO., LTD, priority 2021, published 2024).

The nature of the test: Clinical Experiment 2: weight of type 2 diabetics, acarbose-controlled double-blind study. The format is in vivo, human. The note with it: SZ-A = tablets of Embodiment 1 extract, 50 mg total alkaloids each. From the text:
• 1. Objective • Effect of Ramulus Mori extract on reducing weight of diabetics. • 2. Experiment method • 2.1 Grouping • Random, double-blind and double-simulation, parallel control of acarbose tablets, multicenter, non-inferiority were adopted in the study design. A total of 600 patients with type 2 diabetes (aged 18 to 70 years old, 19 kg/m^2≤BMI≤30 kg/m^2, 7%≤HbAlC≤10%) and poor blood glucose control were included, and were randomly divided into a total alkaloid tablet group (SZ-A, N=360) and a acarbose (Glucobay®) group (CON, N=240). All signed informed consents. […] (1) From the Pt to the 24th week of administration, the height, weight and weight gain of each group were observed and recorded every day. […]

Turning to `C[C@H]1O[C@H](O[C@H]2[C@H](O)[C@@H](O)[C@@H](O[C@H]3[C@H](O)[C@@H](O)C(O)O[C@@H]3CO)O[C@@H]2CO)[C@H](O)[C@@H](O)[C@@H]1N[C@H]1C=C(CO)[C@@H](O)[C@H](O)[C@H]1O` (some centres unmarked) [acarbose], the “average change of weight” value is 0.210 kg (type 2 diabetics with BMI≥28 kg/m^2, after 8 weeks of administration) and -0.182 kg (type 2 diabetics with BMI≥28 kg/m^2, after 24 weeks of administration).
